Source: US20160194336A1, “P38 MAPK INHIBITORS FOR THE TREATMENT OF INFLAMMATORY DISEASES” (ALLINKY BIOPHARMA, priority 2012, published 2016)
Read-outs that look alike come from different tables or passages of the source.

Legend:
p38alpha [1] = target: T1, p38alpha (Homo sapiens, UniProt Q16539); assay: p38 cascade kinase reaction (inactive p38alpha, MKK6, ATF2, ADP-Glo); type: biochemical; conditions: for inhibition at 10 µM: compound 10 μM
T1 construct: purchased Invitrogen PV3305
Experimental: Purified recombinant activated p38alpha (10 nM)(ProQinase) was preincubated 10 minutes at 30° C. with the compound of interest at concentrations between 1 and 100 µM in duplicate in a final volume of 30 ul of kinase buffer (Hepes 60 mM pH 7.5, MgCl2 3 mM, MnCl2 3 mM, Sodium Orthovanadate 3 μM, DTT 1.2 mM). After preincubation, peptide substrate (SignalChem #P03-58) and ATP were added to a final concentration of 10 μM and 100 μM respectively, and then incubated 40 minutes at 30° C. for the kinase reaction. Phosphorylation was analyzed with ADP-GloM (Promega #V9101) and emitted luminescence was measured with BMG Fluostar microplate reader.
(§1) After preincubation, MKK6 (ProQinase), ATF2 (ProQinase) and ATP were added to a final concentration of 10 nM, 5 μM and 10 μM respectively, then incubated 40 minutes at 30° C. and analyzed with ADP-Glo™.

p38beta = p38beta (Homo sapiens, UniProt Q15759); assay: p38 cascade kinase reaction, p38beta/ATF-2; type: biochemical
Sequence of p38beta (Q15759 whole entry): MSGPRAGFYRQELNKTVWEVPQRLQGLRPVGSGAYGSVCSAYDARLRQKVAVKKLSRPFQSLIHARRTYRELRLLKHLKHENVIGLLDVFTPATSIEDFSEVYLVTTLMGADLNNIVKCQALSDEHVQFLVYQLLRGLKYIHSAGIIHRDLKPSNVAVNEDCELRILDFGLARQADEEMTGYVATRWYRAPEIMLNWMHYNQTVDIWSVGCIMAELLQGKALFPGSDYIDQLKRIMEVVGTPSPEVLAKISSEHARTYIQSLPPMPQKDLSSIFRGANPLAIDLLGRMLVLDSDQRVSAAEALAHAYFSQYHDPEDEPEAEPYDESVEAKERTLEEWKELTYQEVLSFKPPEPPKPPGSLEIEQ
Experimental: as §1

p38αR189A = target: T2, p38αR189A (Homo sapiens, UniProt Q16539, R189A); assay: site-mutated p38 phosphorylation cascade assay, R189A mutant; type: biochemical; conditions: compound 10 uM
T2 construct: made in house; host or cells: E. coli XL10-Gold
T2 sequence (Q16539 whole entry R189A): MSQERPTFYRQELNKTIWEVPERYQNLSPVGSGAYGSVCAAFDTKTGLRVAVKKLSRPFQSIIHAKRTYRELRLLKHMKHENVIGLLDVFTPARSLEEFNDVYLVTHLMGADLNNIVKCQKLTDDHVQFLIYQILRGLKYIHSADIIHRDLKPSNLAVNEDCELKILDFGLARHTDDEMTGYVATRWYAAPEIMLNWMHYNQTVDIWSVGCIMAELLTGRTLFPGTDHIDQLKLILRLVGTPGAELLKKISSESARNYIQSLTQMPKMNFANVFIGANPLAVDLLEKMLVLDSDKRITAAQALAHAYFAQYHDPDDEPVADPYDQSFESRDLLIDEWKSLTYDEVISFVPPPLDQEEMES
Experimental: as §1
(§2) Replacement of specific residues arginine 186 and 189 of p38α (pGEX4T-1-p38α) for alanine was performed with the QuikChange Lightining Site-Directed Mutagenesis Kit (Agilent Technologies). The following oligonucleotides were used for the arginine 186 to alanine substitution: forward primer: 5′-SEQ ID NO 7-3′; reverse primer: 5′-SEQ ID NO 8-3′. Oligonucleotides used for the arginine 189 to alanine substitution were: forward primer: 5′-SEQ ID NO 9-3′; reverse primer: 5′-SEQ ID NO 10-3′. Mutations were validated by sequencing (Genomic Unit, Parque Cientifico de Madrid). E. coli XL10-Gold ultracompentent cells (Agilent Technologies) were transformed with the vector plasmids containing p38αWT and mutants. For the expression of recombinant p38α transformed cells were cultured overnight at 37° C. in 50 ml of fresh LB medium containing ampicillin (100 μg/ml). After that, culture was diluted in fresh LB to A595=0.4 and grown for approximately 1 h at 37° C. until exponential growth and then induced with Isopropyl-β-D-thiogalactopyranoside (IPTG) 1 mM for 5 h. The cells were collected by centrifugation and cell pellet were resuspended in 50 ml of cold lysis buffer: PBS pH 7.4, EDTA 10 mM, PMSF 1 mM, Benzamidine 0.2 mM, DTT 5 mM, Triton X-100 1% and Lysozyme 1 mg/ml. The soluble and insoluble fractions were separated by centrifugation (16,000 g for 20 min). The soluble fraction was incubated for 2 hours with 1 ml of pre-equilibrated Glutathione Sepharose 4B (GE Healthcare) and the resin was extensively washed in a column with 200 ml of binding buffer: PBS, PMSF 1 mM and benzamidine 0.2 mM. Proteins were eluted with 1 ml of Tris-HCl 50 mM pH 8.0 and reduced glutathione 20 mM. 20% glycerol was added to purified proteins and stored at −80° C. Protein concentration and purity was assessed by SDS-PAGE. Kinase activity was measured by ADP-glo kit using MKK6 as activator and ATF2 as substrate. Activity recorded for p38αR186A and p38αR189A were 15.5% and 4.8%, respectively (n=4) related to wild type protein.

[2] = tested on: Fibroblast-like synoviocytes (FLS) from patients with rheumatoid arthritis; assay: inflammatory mediators (IL6, IL8, MCP-1) by ELISA in FLS stimulated with TNF-alpha; type: cell-based, human; conditions: compound 100 μM
Experimental: Fibroblast-like synoviocytes (FLS) from patients with rheumatoid arthritis (RA) were obtained at the time of synovectomy or joint replacement. All RA patients fulfilled the American College of Rheumatology […] criteria for the diagnosis of RA (Arnett FC y cols. 1988 Arthritis Rheum 31(3):315-24).
Synovial tissue was minced and incubated with 10 μg/ml collagenase in serum-free Dulbecco modified Eagle medium (DMEM; Gibco Invitrogen, Barcelona, Spain) for 3 h at 37° C. After digestion, FLS were filtered through a nylon cell strainer (BD Falcon, Franklin Lakes, USA), washed extensively, and cultured in DMEM supplemented with 10% v/v fetal calf serum, 1% penicillin-streptomycin, and 1% L-glutamine (all reagents from PAA, Laboratories GmbH) in a humidified 5% C02 atmosphere. Adherent cells at 80-90% confluence were trypsinised and diluted at a split ratio of 1:3. FLS from 4 patients and between passages 3 to 8 were used for all experiments.
Enzyme-Linked Immunosorbent Assay (ELISA): RA FLS (1×10^4 cells/well) were cultured in DMEM 1% FCS in 96 well plates and treated with p-p38 inhibitors for 1 h. After, they were stimulated with TNF-α (10 ng/ml, Sigma Aldrich) and both treatments were present in the culture throughout the experiment. The supernatants were harvested at 18 h after treatment and assayed for IL6, IL8/CXCL8 and monocyte chemoattractant protein (MCP)-1/CCL2 by ELISA according to the manufacturer's instructions (BD Bioscience, San Jose, Calif., USA).

[3] = tested on: TNF-α secretion, THP-1 cells; assay: Inhibition of TNF-α secretion by LPS-stimulated THP-1; type: cell-based; conditions: Homo sapiens, THP-1, 3 h, monocytes with LPS, read-out: TNF abetment
Experimental: Inhibition of TNF-α Secretion by a Human Monocytic Cell Line, THP-1.
THP-1 cells, growing in log phase, were collected by centrifugation and resuspended in RPMI 1640 (Sigma Aldrich), to a final cell concentration of 2×10^6 cells/ml. Cells were plated into 24-well plates (BD Biosciences). Dilutions of compounds in dimethyl sulfoxide (DMSO) were added to the culture to a final concentration M. The final DMSO concentration was 0.5%. The cells […] suspensions were preincubated with compounds for 1 h at 37° C. in a 5% C02 humidified atmosphere before the addition of LPS (Sigma Aldrich, L2654) to a final concentration of 2 μg/ml. After that, cells were incubated for 3 h followed by centrifugation to pellet cells. Cell supernatants were stored at 4° C. until Human analysis for TNF-α content. TNF-α levels were determined by ELISA (TNF Biotrak, GE Healthcare) following the manufacturer's directions. The percentage inhibition was calculated for each compound concentration tested, and the IC50 was calculated for each compound.

p38αR186A = target: T3, p38αR186A (Homo sapiens, UniProt Q16539, R186A); assay: site-mutated p38 phosphorylation cascade assay, R186A mutant; type: biochemical; conditions: compound 10 uM
T3 construct: made in house; host or cells: E. coli XL10-Gold
T3 sequence (Q16539 whole entry R186A): as the sequence (Q16539 whole entry R189A) above, with R186A, A189R counted along it
Experimental: as §1, §2

THP-1 cells = assay: survival of monocytes with LPS; type: cell-based, human
p38alpha wt = target: T4, p38alpha wt (Homo sapiens, UniProt Q16539); assay: site-mutated p38 phosphorylation cascade assay, wild type; type: biochemical; conditions: compound 10 uM
T4 construct: made in house; host or cells: E. coli XL10-Gold
T4 sequence (Q16539 whole entry): as the sequence (Q16539 whole entry R189A) above, with A189R counted along it
Experimental: as §1, §2

p38alpha [4] = target: T1, p38alpha; assay: p38 cascade kinase reaction (inactive p38alpha, MKK6, ATF2, ADP-Glo); type: biochemical; conditions: ATP 100 μM; compound 10 μM; n=4; read-out: inhibition, ATP-site competitive assay, cascade p38alpha/ATF-2

T1 sequence (Q16539 whole entry): as the sequence (Q16539 whole entry R189A) above, with A189R counted along it

For `CCOC(=O)c1ccc(Nc2nc3nonc3nc2N2CCC(Cc3ccccc3)CC2)cc1` [Compound 1], the inhibition at 10 µM (p38alpha [1]; ATP 10 μM, n=4, read-out: inhibition, ATP-site competitive assay, cascade p38alpha/ATF-2) was 94%, the “inhibition upon ATP increase (ATP-site competition)” value (p38alpha [1]; cascade p38alpha/ATF-2, n=4) was “Maintains Inhibition to the Same Level Upon ATP Increase” and the inhibition at 10 µM (p38alpha [1]; dose response table, read-out: inhibition p38alpha/ATF-2) was 88%. The inhibition at 100 µM (p38alpha [1]; compound 100 μM, dose response table, read-out: inhibition p38alpha/ATF-2) was 101%, the inhibition at 10 µM (p38beta; compound 10 μM) was 58% and the inhibition at 100 µM (p38beta; compound 100 μM) was 100%. The inhibition at 10 µM (p38αR189A) was 25%, the “IL-6, % of TNF-α control” value ([2]; FLS sample R 2) was 13.8% and the “IL-8, % of TNF-α control” value ([2]; FLS sample R 2) was 27.3%. For the same compound, the “MCP-1, % of TNF-α control” value ([2]; FLS sample R 2) was 2.1%, the “IL-6, % of TNF-α control” value ([2]; FLS sample R 6) was 8.1% and the “IL-8, % of TNF-α control” value ([2]; FLS sample R 6) was 4.8%. For the same compound, the “MCP-1, % of TNF-α control” value ([2]; FLS sample R 6) was 0.0%, the “IL-6, % of TNF-α control” value ([2]; FLS sample R 8) was 23.5% and the “IL-8, % of TNF-α control” value ([2]; FLS sample R 8) was 67.4%. For the same compound, the “MCP-1, % of TNF-α control” value ([2]; FLS sample R 8) was 22.5%, the “IL-6, % of TNF-α control” value ([2]; FLS sample SH203) was 101.4% and the “IL-8, % of TNF-α control” value ([2]; FLS sample SH203) was 43.8%. The “MCP-1, % of TNF-α control” value ([2]; FLS sample SH203) was 8.8%, the “IL-6, % of TNF-α control, Media” value ([2]; mean of 4 FLS samples) was 36.7% and the “IL-8, % of TNF-α control, Media” value ([2]; mean of 4 FLS samples) was 35.8%. For the same compound, the “MCP-1, % of TNF-α control, Media” value ([2]; mean of 4 FLS samples) was 8.4%, the inhibition at 1 µM ([3]; 1 uM) was 9% and the inhibition at 10 µM ([3]; 10 uM) was 40%. The inhibition at 10 µM (p38αR186A) was 20%, the Cell survival (THP-1 cells; 1 uM) was 96% and the Cell survival (THP-1 cells; 10 uM) was 93%. It also gave an inhibition at 10 µM (p38alpha wt) of 64% and an inhibition at 10 µM (p38alpha [4]) of 92%.
